Earlier results in patent US4305927A, “Method for the management of intraocular pressure” (ALZA Corporation, priority 1980, dated 1981).

Test system: carbonic anhydrase

## CC(=O)Nc1nnc(S(N)(=O)=O)s1 [acetazolamide, 5-acetamido-1,3,4-thiadiazole-2-sulfonamide]
  action on carbonic anhydrase: enzyme inhibitor that acts on carbonic anhydrase
